Drawing on a melting point compilation (Tetko et al.; mined from patent text by program, amines drawn as free bases though some values may be those of a salt), this text covers melting point for 87 molecules.

Each structure is given as a SMILES string.

Regarding `O=C(OCCOCCOCCO)C(=O)c1ccc(OCCOc2ccc3ccccc3c2)cc1`, the melting point was 70 to 71 °C.

Molecule `CN1CCc2c(N3CCCC3)c(F)c(N)c3c(=O)c(C(=O)O)cn1c23` came in with a melting point of over 290 °C.

For the molecule `NCCCNc1ccc(Cl)nn1`, the melting point amounted to 125 °C. The value for `COC(=O)CCCCNC(=O)c1sc2ccc(OC)cc2c1OC(C)C` was 82 to 84 °C; that for `COc1ccc(C(=O)c2ccc(OCc3ccccc3)cc2)c(O)c1` was 124 to 125 °C; that for `c1nc(-c2ccc(CN3CCCCCC3)s2)n[nH]1` was 129 to 130 °C. In turn, `CC(C)(N)c1ccc(-c2nc(Nc3ccc(F)c(Cl)c3)ncc2C#N)cc1` yielded a melting point of 237 °C. Turning to `CCC(=O)Nc1c(-n2cncn2)cnn1-c1c(Cl)cc(C(F)(F)F)cc1Cl`, the melting point lay within 167 to 169 °C. The figure for `COCc1cc(C2=C(Cl)CCN(C(=O)c3ccccc3)C2)no1` is 60.5 to 62 °C. `CNc1nc(C#N)c(-c2ccncc2)s1` displayed a melting point of 192 to 195 °C. The value for `COC(=O)C1CNCCN1C(=O)c1cc(OC)c(OC)c(OC)c1` (configuration not stated) was 134 to 135 °C; that for `CN(C)c1ccc(C2(c3ccc(N(C)C)cc3)NNC(=O)c3cc(N(C)C)ccc32)cc1` was 265 to 270 °C; that for `COc1cc(C=Cc2ccc(Cl)nn2)cc(OC)c1OC` was 162 to 164 °C.

In turn, `Cc1ccc(C(C)(C)C)c(SC2=C(O)CC(CCc3ccccc3)(c3ccc(OCCO)cc3)OC2=O)c1` (configuration not stated) registered a melting point of 70 to 73 °C. The value for `CCOC(=O)c1cc2n(CC)c3ccc(Cl)cc3c(=O)n2n1` was 256 to 257 °C; that for `CCOc1cc([C@H]2COCC[C@H]2NC(=O)c2ccc(C(=O)OC)cc2)ccc1OC` was 166 to 168 °C. The value for `O=C(c1cc(C(F)(F)F)cc(C(F)(F)F)c1)N1CCC(Nc2nc3cccnc3n2Cc2ccco2)CC1Cc1ccccc1` (configuration not stated) was 109 °C.

`COc1ccccc1N1CCN(CCCC2(c3ccc(F)cc3)OCc3cc(C#N)ccc32)CC1` (configuration not stated) showed a melting point of 147 to 149 °C.

`O=c1[nH]c2ncc(-c3cccc(-c4cn[nH]n4)c3)nc2n1CC1CCCCC1` showed a melting point of 299 to 301 °C. The value for `CN1CC[C@@H](c2c(O)cc(O)c3c(=O)cc(-c4ccccc4I)oc23)[C@@H]1CO` was 233 to 235 °C. In turn, `Cc1cc(C)c2nc(COc3ccc(CC4SC(=O)N(C(c5ccccc5)(c5ccccc5)c5ccccc5)C4=O)cc3)n(C)c2n1` (configuration not stated) gave a melting point of 96 to 99 °C. As to `CC1(N)CN(c2nc3c(cc2F)c(=O)c(C(=O)O)cn3C2CC2)C1`, the melting point lay in the range of 285 to 287 °C.

As for `CCOC(=O)C=Cc1cc(C=CC(=O)OC(C)(C)C)cc(Oc2cccnc2)c1`, the melting point fell in the range of 116 to 118 °C. With `COc1nc(OC)nc(C2(c3nc(OC)nc(OC)n3)OC(=O)c3c(Cl)cccc32)n1`, the melting point was in the range of 126 to 127 °C. `O=C(CCc1nc(-c2ccccn2)no1)NC1CCN(Cc2ccc(F)c(Cl)c2)CC1` gave a melting point of 150 °C. `COc1ccc(C(=O)Nc2cccnc2)cc1Nc1cccc(C(F)(F)F)c1` showed a melting point of 184 to 185 °C. Turning to `COc1ccc(NC(=O)NCCCOc2cccc(CN3CCCCC3)c2)cc1`, the melting point fell in the range of 111 to 112 °C. The figure for `CC1(C)OC(=O)Nc2ccc(-c3ccc(C#N)n3CC(=O)O)cc21` is 207 to 209 °C; for `Cc1c(NC(=O)CC(C)(C)C)cc2c(c1C)OC(C)(C)C2(O)c1ccco1` (configuration not stated) it is 108 to 110 °C; for `O=C(NCC1(c2ccccc2)CCCCC1)Nc1ccc(Br)cc1` it is 172 to 173 °C. The figure for `COc1cc(C)c(C(O)C#CC(F)(F)F)c(C)c1C` (configuration not stated) is 126 to 130 °C; for `CC(=O)c1ccc(C2(O)CC(C)(C)CC(C)(C)C2)cc1` it is 135 °C; for `CC(C)n1nc(-c2c(Sc3ccccc3)nc(N)nc2-c2ccccc2)ccc1=O` it is 214 to 215 °C.

With `CCOC(=O)c1c(Nc2cc(F)ccc2[N+](=O)[O-])sc2cc(C)ccc12`, the melting point is 147 to 149 °C. The figure for `O=C(c1ccccc1)N1CCN(Cc2ccccc2)CCN1C(=O)c1ccccc1` is 135 to 138 °C; for `O=C(O)CC(=O)Nc1ccc2c(c1)c(=O)[nH]c(=O)n2CCCCN1CCC(OC(c2ccccc2)c2ccccc2)CC1` it is 166 to 168 °C. The value for `Clc1cccc(CC[C@H]2CN(Cc3ccccc3)CCN2Cc2ccccc2)c1` was 56 to 60 °C; that for `O=C1C(=O)c2ccccc2C2=C1SCC1(CCN(CCCOc3ccccc3)CC1)O2` was 127 to 129 °C. Take `O=C(O)c1c(-c2ccccc2)oc2ccccc2c1=O`: the melting point lay within 298 to 300 °C. On to `CC(C)Oc1ccccc1-c1cc(=O)c2cc(-c3nnn[nH]3)ccc2o1`, for which the melting point was in the range of 293 to 295 °C. The molecule `COc1ccc(C(=O)c2ccc(=O)[nH]c2C)cc1` came in with a melting point of 228 to 230 °C. The figure for `O=C(O)c1ccccc1NCc1ccncc1` is 208 °C. In turn, `Fc1ccc(Cn2c(NC3CCNCC3)nc3ccccc32)cc1` came in with a melting point of 216 °C.

Regarding `N#Cc1nn(-c2c(Cl)cc(SC(F)(F)F)cc2Cl)c(N)c1I`, the melting point lay in the range of 172 to 174 °C. Molecule `COc1cc(Cl)cnc1OCC#Cc1cccc(OCC#N)n1` displayed a melting point of 118 °C. The value for `CCCCCCCCc1ccc(CCC(NC(C)=O)(C(=O)OCC)C(=O)OCC)s1` was 57 to 58 °C; that for `c1ccc(OC2CN(C(c3ccccc3)c3ccccc3)C2)cc1` was 83 to 85 °C. The value for `CC(O)CCCCc1ccc(S(N)(=O)=O)s1` (configuration not stated) was 75 to 76 °C; that for `NC(C=Cc1cccs1)=NO` was 92 °C; that for `O=C(O)C#Cc1ccc(Cl)cc1Cl` was 161 to 163 °C. `c1ccc(-c2ncnn2-c2ccccc2)cc1` came in with a melting point of 85 to 87 °C.

Turning to `CC#CCOc1ccc(S(=O)C(C(=O)NO)c2ccc(Cl)cc2)cc1` (configuration not stated), the melting point stood at 92 °C. The value for `COc1ccc2c(c1)C(=O)C(Cc1ccncc1)CO2` (configuration not stated) was 91 to 92.5 °C. `CCCCOC(=O)c1cc(OCc2ccccc2)c2c(Cl)cc(Cl)cc2n1` yielded a melting point of 130 to 132 °C. The value for `Cc1cc2oc(=O)c3c(c2cc1NC(=O)c1ccccc1)CCN(CCN1CC2CCC(CC2)C1)C3` was 174 to 176 °C; that for `CCOC(=O)c1c(CN(CC)CC)nc2cc(OC)c(OC)cc2c1-c1ccc(Cl)cc1` was 82 to 83 °C; that for `CCOC(=O)c1ccc(/C=C(\C)c2ccc3c(c2)C(C)(C)CCCC3)cc1` was 69 to 70 °C. The value for `COc1cnc(OC(c2ccccc2)(c2ccccc2)c2ccccc2)cc1OC1CCCC1` was 132 to 133 °C; that for `C=C(C)Cc1c(O)c(C)c(C)c2c1CC(C)(C)N2C=O` was 116 to 118 °C; that for `Cc1cc(CNc2cccc(C(=O)O)c2C(=O)O)oc1C` was 127 to 129 °C. As to `CS(=O)(=O)c1nc2ncc(Cl)cc2s1`, the melting point was 201 to 202 °C. For `O=C(Cn1c(-c2ccc(Cl)cc2)nc2ncccc21)c1ccccc1`, the melting point is 262 to 263 °C. For the molecule `CC(C(=O)O)(c1ccc(N2CCCC2)cc1)c1ccc(N2CCCC2)cc1`, the melting point was in the range of 174 to 176 °C.

`COC(=O)CCc1cc2cc(Cl)ccc2n1S(=O)(=O)c1ccc(C(C)=O)cc1` returned a melting point of 83 to 87 °C. The figure for `CC(=O)Nc1c(I)c(C(N)=O)c(I)c(C(=O)NCC(=O)O)c1I` is 271 to 272 °C. The figure for `O=C1NC(=O)c2c1cc1ccc3c(c1c2-c1cccnc1)OCO3` is 323 to 325 °C; for `S=C(Nc1ccccc1)N1CCN(c2nc3cccccc-3n2)CC1` it is 267 to 269 °C; for `CCOc1c(SC(F)(F)F)c(C(N)=O)nn1-c1c(Cl)cc(C(F)(F)F)cc1Cl` it is 161 °C. `O=C(NCc1ccccn1)Nc1nc(C(=O)O)cs1`: the melting point came out at 220 °C. On to `Cc1c(Cc2cc(=O)n(-c3cccc(C(F)(F)F)c3)[nH]2)c2cc(Cl)ccc2n1C(=O)c1ccc(Cl)cc1`, for which the melting point was in the range of 81 to 83 °C. The figure for `CC(C)Oc1nccc(-c2c(-c3ccc(F)cc3)ncn2C2CCNCC2)n1` is 121 to 122 °C; for `CCOC(=O)C(c1c[nH]c2cccc(C(=O)OC)c12)C(C)[N+](=O)[O-]` (configuration not stated) it is 106 to 110 °C.

In turn, `Oc1cccc([C@H]2CCCC[C@H]2N2CCCC2)c1` (relative stereo) registered a melting point of 124 to 126 °C. The value for `COc1cc(Cc2sc3ccccc3c2S(=O)(=O)Nc2onc(C)c2Br)cc(OC)c1OC` was 154 to 156 °C; that for `CCc1nc2c([nH]1)c(=O)n(C)c(=O)n2-c1ccc(Cl)cc1Cl` was 274 to 276 °C.

Molecule `CC(=O)N1CC(C)(C)c2cc3nc(-c4ccccc4)[nH]c3cc21` registered a melting point of 225 to 227 °C. On to `CNc1nc(-c2ccccc2)c(CCOC)c2ncnn12`, for which the melting point was 133 to 136 °C. `O=C1CCC2=C(c3ccccc3)c3ccccc3C2N1` (configuration not stated) yielded a melting point of 213 to 216 °C. `CC(=O)c1cc(-c2ccncc2)sc1Oc1ccccc1F` gave a melting point of 93 to 96 °C.

Molecule `Cc1c(Br)c2c(c(C)c1NC(=O)CC(C)(C)C)CC(C)(C)O2` gave a melting point of 205 to 206 °C.

Regarding `Fc1ccc(-c2nn3c(c2-c2ccncc2)NNCC3)cc1`, the melting point fell in the range of 233 to 235 °C. As for `COc1ccc(-c2coc3ccc(-c4nnc(S)o4)cc23)cc1`, the melting point fell in the range of 204 to 205 °C. The figure for `COc1cccc(S(=O)(=O)N2CCc3cc(OCc4ccccc4)c(OC)cc3C2=O)c1` is 140 to 145 °C; for `CCOC(=O)Oc1ccc(S(=O)(=O)N2c3c(C)cccc3-n3cccc3C2CC)cc1` (configuration not stated) it is 104 °C; for `CC1CN(c2n[nH]c(-c3ccc(Cl)cc3)c2-c2ccncn2)CCN1C` (configuration not stated) it is 212 to 214 °C. Consider `C[C@H](N)Cn1ncc2ccc(C(N)=O)cc21`, for which the melting point was in the range of 170 to 172 °C.

Consider `CCN(CC)Cc1ccc2c(c1)-c1[nH]nc(-c3ccsc3)c1C2`, for which the melting point was in the range of 157 to 158 °C.

One may read the melting point as the temperature, or range, at which the solid turns liquid.
